# Measured values reported in patent US7718684B2, “Methods and materials for assessing prostate cancer therapies and compounds” (The Regents of the University of California, priority 2004, dated 2010).
# Experiments:
# [1] = test system: LNCaP-AR cells; assay: Microarray of induced genes in LNCaP-AR cells; assay type: cell-based, human
# [2] = test system: LNCaP cells infected with the empty-vector control; assay: Microarray of induced genes in LNCaP control cells; assay type: cell-based, human; settings: 10 μM
# [3] = test system: PSA mRNA and protein expression in parental LAPC4 cells; assay: PSA expression in parental LAPC4 cells; settings: androgen-starved
# [4] = test system: PSA expression in LAPC4 cells expressing increased levels of AR; assay: PSA expression in LAPC4 cells with increased AR; settings: androgen-starved
# [5] = test system: LNCaP-AR cells; assay: In vitro growth of LNCaP-AR cells (low androgen / bicalutamide)
# [6] = test system: AR LBD; settings: cited from earlier work
# [7] = test system: LNCaP cells infected with the empty vector; assay: In vitro growth of LNCaP vector cells in low androgen; assay type: cell-based, human; settings: steroid-depleted
# [8] = target: AR transcription complex on the promoters of PSA and KLK2 in LNCaP cells (Homo sapiens, UniProt P10275, T878A)
# AR transcription complex on the promoters of PSA and KLK2 in LNCaP cells, sequence (P10275 whole entry T878A, one chain of several): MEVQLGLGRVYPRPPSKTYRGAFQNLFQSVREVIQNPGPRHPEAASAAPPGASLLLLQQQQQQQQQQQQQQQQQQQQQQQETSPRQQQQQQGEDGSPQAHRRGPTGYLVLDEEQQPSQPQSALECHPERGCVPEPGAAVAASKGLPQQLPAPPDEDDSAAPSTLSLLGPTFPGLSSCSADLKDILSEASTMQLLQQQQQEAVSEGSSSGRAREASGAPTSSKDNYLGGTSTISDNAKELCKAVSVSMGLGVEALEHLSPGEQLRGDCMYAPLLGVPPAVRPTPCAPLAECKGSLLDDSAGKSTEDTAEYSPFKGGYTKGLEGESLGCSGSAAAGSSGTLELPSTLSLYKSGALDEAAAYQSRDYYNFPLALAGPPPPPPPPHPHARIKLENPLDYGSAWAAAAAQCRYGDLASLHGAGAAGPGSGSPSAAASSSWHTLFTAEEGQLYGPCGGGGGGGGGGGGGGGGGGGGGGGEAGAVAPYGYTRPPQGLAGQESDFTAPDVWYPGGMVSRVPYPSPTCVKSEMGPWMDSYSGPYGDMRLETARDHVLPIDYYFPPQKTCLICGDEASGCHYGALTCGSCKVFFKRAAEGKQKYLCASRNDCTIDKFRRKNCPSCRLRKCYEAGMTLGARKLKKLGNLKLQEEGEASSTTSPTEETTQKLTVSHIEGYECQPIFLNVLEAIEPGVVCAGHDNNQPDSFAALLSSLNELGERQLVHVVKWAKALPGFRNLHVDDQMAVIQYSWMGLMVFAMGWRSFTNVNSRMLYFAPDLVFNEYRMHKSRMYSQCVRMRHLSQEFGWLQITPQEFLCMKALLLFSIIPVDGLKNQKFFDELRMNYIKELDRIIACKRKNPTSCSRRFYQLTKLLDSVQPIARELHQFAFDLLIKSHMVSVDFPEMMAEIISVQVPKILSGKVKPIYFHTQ
# [9] = test system: prostate-specific antigen (PSA) produced by LNCaP cells; assay: PSA produced by LNCaP cells; assay type: cell-based, human
compound,measurement,setting,value
CC(O)(CS(=O)(=O)c1ccc(F)cc1)C(=O)Nc1ccc(C#N)c(C(F)(F)F)c1 (stereo not shown) [bicalutamide],probe sets induced,"[1]; 10 μM, 2-fold increase, P<0.05, 500 minimum expression",48 probe sets
same,subset of total androgen-regulated genes induced,[1]; of >600 androgen-regulated probe sets,< 10%
same,probe sets induced,[2],no elements were significantly upregulated
same,effect on PSA mRNA and protein expression,[3],typical antagonist activity
same,effect on PSA expression,[4],functioned as an agonist
same,growth in the presence of the antiandrogen,[5]; LNCaP-AR cells,resistant
CC1(C)C(=O)N(c2ccc(C#N)c(C(F)(F)F)c2)C(=S)N1CCCCO [RU59063],binding to AR LBD compared with drugs such as bicalutamide,[6],more potent binders of the AR LBD
"C[C@]1(O)CC[C@H]2[C@@H]3CCC4=CC(=O)CCC4=C3C=C[C@@]21C [Compound R1881, R1881]",concentration needed for growth in charcoal-stripped serum,[7],100 pM
same,recruitment of AR and polymerase II to promoters,[8],AR and polymerase II were recruited to both promoters regardless of AR level
same,lower concentration supporting growth versus vector cells,"[5]; charcoal-stripped serum, relative to vector cells",at least 80%
CC1(C)C(=O)N(c2ccc(C#N)c(C(F)(F)F)c2)C(=S)N1c1ccc(N=[N+]=[N-])cc1 [Compound 5],antagonist character,"[9]; LNCaP cells, PSA",full antagonists
same,IC50 for PSA expression compared with bicalutamide,"[9]; LNCaP cells, relative to bicalutamide",ten-fold lower
same,agonist and antagonist effects,[9]; initial screening and biological testing,best antagonist effects without any strong agonist effects
